Experimental data as given in patent US20150322001A1, “OMEGA-3 ANALOGUES” (The University of Sydney, priority 2012, published 2015).

Key:
MDA-MB-231 cells [1] = assay: MTT assay, inhibition of proliferation of MDA-MB-231 cells; assay type: cell-based, human; details: Homo sapiens, MTT reduction, 24 h
Description: The synthesized compounds given in Table 1 were tested for their activity in inhibiting the proliferation of MDA-MB-231 cells.
• 1. Cell culture and cell treatment: Breast cancer MDA-MB-231 cells were maintained in monolayers at 37° C. in DMEM containing penicillin and streptomycin, L-glutamine and 10% fetal bovine serum in an atmosphere of 95% air and 5% CO2. Cells were seeded into multi-well plates at 5×10^4 cells/mL; media was replaced 24 h later with fresh serum-free DMEM containing one of the test compounds in DMSO. DMSO was added to control cells at a final concentration of 0.1%. • 2. MTT assay: MDA-MB-231 cells were seeded in 96 well plates (0.2 mL/well), treated with compounds at 0.01, 0.1, 0.5, 1, 5 and 10 μM for 24 h. MTT (25 μL of 2.5 mg/mL solution) was added to each well for 2 h, after which MTT and media were removed. The blue formazan product formed from MTT by live cells was dissolved in DMSO (100 μL/well) and quantified spectrophotometrically at 540 nm in a multilabel counter. IC50s were calculated using GraphPad Prism (Prism 5.01). • 3. Caspase 3 activity: MDA-MB-231 cells were seeded in 96 well plates (0.2 mL/well), and were treated with compounds at 0.1, 0.5 and 1 μM for 24 h. Caspase 3 activity was quantified using the Caspase-Glo 3/7 assay kit according to manufacturer's protocol (Promega). Briefly, after 24 h treatment, fresh serum-free media was added to wells. Cells were equilibrated at room temperature for 30 min, caspase 3/7 substrate in lysis buffer was added and the luminescence was measured. Relative caspase 3/7 activity was calculated as [(luminescence in treatment−luminescence in control)/luminescence in control×100%]. • 4. Annexin V assay: MDA-MB-231 cells were seeded in 6 well plates (3 mL/well), and were treated with compounds at 0.1, 0.5 and 1 μM for 24 h. The apoptotic cells were quantified by Annexin V staining according to the manufacture's protocol (BD Biosciences). Briefly, after 24 h treatment, the media and harvested cells were collected, followed by PBS washes. Cells were stained with Annexin V and PI in binding buffer for 15 min at room temperature and quantified by flow cytometry (BD Biosciences). The apoptotic cells (%) were calculated as [(Annexin V positive cells in treatment−Annexin V positive cells in control)/Annexin V positive cells in control×100%]. • 5. Matrigel assay: MDA-MB-231 cells were trypsinized and resuspended in serum-free DMEM media (3.5×10^6 cells/mL). The cell suspension was mixed 1:1 with Matrigel solution (Bio Scientific). Aliquots (20 μL containing 3.5×10^4 cells) were placed into 6-well tissue-culture dishes to form well-defined droplets and incubated at 37° C. for 5 min to enable semi-solidification. Migration media was freshly made as DMEM containing 20% fetal bovine serum, epidermal growth factor 10 pg/mL, hydrocortisone 0.4 ng/mL, vascular endothelial growth factor (VEGF, 1 pg/mL), basic fibroblast growth factor (bFGF, 20 pg/mL), insulin-like growth factor-1 (40 pg/mL), ascorbic acid (2 ng/mL) and heparin (45 ng/mL). Compounds were added in migration media (3 mL/well) and plates were then incubated for 24 h. Cells that migrated out of droplets were scored using phase-contrast microscopy and digital image analysis (Olympus). • 6. Real-time RT PCR: Cell droplets from migration assays were collected, and total RNA was extracted using Tri Reagent (Astral Scientific) according to the manufacturer's protocol. RNA samples were treated with DNase (Promega) and gene expression was quantified using an Express Onestep Superscript qRT-PCT kit (Invitrogen) and gene-specific primers: heparanase (forward) […] and (reverse) GCAGCAACTTTGGCATTTC, integrin-α3 (forward) […] and (reverse) […], actin (forward) […] and (reverse) […]. The cycling conditions (Roto-Gene™ 6000; Corbett Research) were as follows: 95° C. (15 min); 40 cycles of denaturation (95° C., 30 s); annealing (60° C., 1 min); elongation (72° C., 1 min). […]

MDA-MB-231 cells [2] = assay: Caspase 3 activity (Caspase-Glo 3/7) in MDA-MB-231 cells; assay type: cell-based, human; details: 0.1 μM, FIG. 1
Description: (§1) • 1. Cell culture and cell treatment: Breast cancer MDA-MB-231 cells were maintained in monolayers at 37° C. in DMEM containing penicillin and streptomycin, L-glutamine and 10% fetal bovine serum in an atmosphere of 95% air and 5% CO2. Cells were seeded into multi-well plates at 5×10^4 cells/mL; media was replaced 24 h later with fresh serum-free DMEM containing one of the test compounds in DMSO. DMSO was added to control cells at a final concentration of 0.1%. • 2. MTT assay: MDA-MB-231 cells were seeded in 96 well plates (0.2 mL/well), treated with compounds at 0.01, 0.1, 0.5, 1, 5 and 10 μM for 24 h. […] The blue formazan product formed from MTT by live cells was dissolved in DMSO (100 μL/well) and quantified spectrophotometrically at 540 nm in a multilabel counter. IC50s were calculated using GraphPad Prism (Prism 5.01). • 3. […] Caspase 3 activity was quantified using the Caspase-Glo 3/7 assay kit according to manufacturer's protocol (Promega). […] Cells were equilibrated at room temperature for 30 min, caspase 3/7 substrate in lysis buffer was added and the luminescence was measured. Relative caspase 3/7 activity was calculated as [(luminescence in treatment−luminescence in control)/luminescence in control×100%]. • 4. […] The apoptotic cells were quantified by Annexin V staining according to the manufacture's protocol (BD Biosciences). […]

MDA-MB-231 cells [3] = assay: Annexin V assay (apoptotic cells) in MDA-MB-231 cells; assay type: cell-based, human; details: FIG. 2
Description: as §1

MDA-MB-231 cells [4] = assay: Matrigel assay, migration of MDA-MB-231 cells out of matrigel droplets; assay type: cell-based, human
Description: This supports the finding that these compounds are effective against metastatic cancer cells.
(§2) • 1. Cell culture and cell treatment: Breast cancer MDA-MB-231 cells were maintained in monolayers at 37° C. in DMEM containing penicillin and streptomycin, L-glutamine and 10% fetal bovine serum in an atmosphere of 95% air and 5% CO2. Cells were seeded into multi-well plates at 5×10^4 cells/mL; media was replaced 24 h later with fresh serum-free DMEM containing one of the test compounds in DMSO. DMSO was added to control cells at a final concentration of 0.1%. • 2. MTT assay: MDA-MB-231 cells were seeded in 96 well plates (0.2 mL/well), treated with compounds at 0.01, 0.1, 0.5, 1, 5 and 10 μM for 24 h. […] The blue formazan product formed from MTT by live cells was dissolved in DMSO (100 μL/well) and quantified spectrophotometrically at 540 nm in a multilabel counter. IC50s were calculated using GraphPad Prism (Prism 5.01). • 3. […] Caspase 3 activity was quantified using the Caspase-Glo 3/7 assay kit according to manufacturer's protocol (Promega). […] Cells were equilibrated at room temperature for 30 min, caspase 3/7 substrate in lysis buffer was added and the luminescence was measured. Relative caspase 3/7 activity was calculated as [(luminescence in treatment−luminescence in control)/luminescence in control×100%]. • 4. […]

MDA-MB-468 cells = assay: MTT reduction in MDA-MB-468 cells; assay type: cell-based; details: compared with MDA-MB-231
MCF-7 cells = assay: MTT reduction in MCF-7 cells; assay type: cell-based; details: compared with MDA-MB-231
Description: These are also breast cancer cell lines, but are less aggressive than the MDA-MD-231 cells.
as §2

Row | IC50 (MDA-MB-231 cells [1]) [nM] | IC50 (MDA-MB-231 cells [4]; Homo sapiens, MDA-MB-231, matrigel assay, read-out: IC50 (concentration at which migration is inhibited to 50% of control)) [nM] | SMILES | caspase-3 activity (MDA-MB-231 cells [2]) | Annexin V staining (early apoptosis) (MDA-MB-231 cells [3]) | inhibition of MTT reduction (MDA-MB-468 cells) | inhibition of MTT reduction (MCF-7 cells) | migration of cells in the matrigel assay (MDA-MB-231 cells [4]; 10 μM)
1 | 750 | 3800 | Cc1ccc(NC(=O)NCCCCCCCCCCCCCCCC(=O)O)cc1 [Compound 16, 16-{[(4-methylphenyl)carbamoyl]amino}hexadecanoic acid] | particularly good | increases this substantially |  |  | 
2 | 1800 |  | CCNC(=O)NCCCCCCCCCCCCCCCC(=O)O [Compound 19, 16-[(ethylcarbamoyl)amino]hexadecanoic acid] |  |  | inhibited MTT reduction | inhibited MTT reduction | 61±5 % of control
